Tests used:
[1] = system: PGRMC1 in A549 lung cancer cells; conditions: ref [33], [37]; cited from earlier work
[2] = system: sigma-2 receptors in hepatic membrane homogenates; assay: blocking of WC-21 photoaffinity labeling of the ~24 kD protein band; format: binding; conditions: rat liver membrane homogenates, photo cross-linked with WC-21, western blot

Compound	upregulation of PGRMC1 [1]	blocking of WC-21 labeling of the ~24 kD protein band [2]
Cc1ccc2c(c1)[C@H]1CN(C)CC[C@H]1N2C(=O)CSc1nnnn1-c1ccc(Cl)cc1 [AG-205]	induced an upregulation	
Cc1ccccc1N=C(N)Nc1ccccc1C [DTG]		blocked
COc1cc2c(cc1OC)CN(CCCCNC(=O)c1cc(C)ccc1OC)CC2 [RHM-1, N-[4-(3,4-dihydro-6,7-dimethoxyisoquinolin-2(1H)-yl)butyl]-2-methoxy-5-methylbenzamide]		blocked

Source: publication PMC3624020 (Nature communications, 2011)
